The values below come from patent publication US9617289B2, “RSV antiviral compounds” (JANSSEN R&D IRELAND, priority 2012, dated 2017).

Structures can show the parent of a compound that is named as a salt.

The subject of the first data set is rgRSV224 virus. Put plainly: Antiviral activity: inhibition of rgRSV224 (GFP-expressing RSV) replication in HeLa cells. Particulars: human respiratory syncytial virus, HeLa, 72 h, read-out: RSV-wt_pEC50, rgRSV224 (MOI=0.02) in HeLa cells, GFP expression three days post-virus exposure. Type of data set: cell-based, respiratory syncytial virus. In short, it runs like this: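 HeLa cells infected with GFP-expressing rgRSV224 at MOI 0.02 alongside 4-fold compound dilutions in duplicate (0.5% DMSO). Incubated 3 days at 37 °C; EC50 taken as 50% inhibition of GFP expression by laser microscopy. CC50 measured in parallel uninfected cells by ATP content after 3 days; SI = CC50/EC50.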
As for `CS(=O)(=O)CCCn1c(CN2c3ccccc3[C@]3(C[C@@H](OC(=O)N4CCOCC4)C3)C2=O)nc2cc(Cl)ccc21` [Compound 133, (1r,3r)-1′-((5-chloro-1-(3-(methylsulfonyl)propyl)-1H-benzo[d]imidazol-2-yl)methyl)-2′-oxospiro[cyclobutane-1,3′-indolin]-3-yl morpholine-4-carboxylate], the EC50 is 0.141 nM.

`CS(=O)(=O)CCCn1c(CN2C(=O)C3(CNC3)c3ccccc32)cc2cc(Cl)ccc21` [Compound 134, 1′-({5-Chloro-1-[3-(methylsulfonyl)propyl]-1H-indol-2-yl}methyl)spiro[azetidine-3,3′-indol]-2′(1′H)-one]: the EC50 is 2 nM.

For the molecule `COC(=O)N[C@H]1C[C@]2(C1)C(=O)N(Cc1nc3cc(Cl)ccc3n1CCCC#N)c1ccccc12` [Compound 135, methyl ((1s,3s)-1′-((5-chloro-1-(3-cyanopropyl)-1H-benzo[d]imidazol-2-yl)methyl)-2′-oxospiro[cyclobutane-1,3′-indolin]-3-yl)carbamate], the EC50 was 0.0955 nM.

For `COC(=O)N[C@H]1C[C@@]2(C1)C(=O)N(Cc1nc3cc(Cl)ccc3n1CCCC#N)c1ccccc12` [Compound 136, methyl ((1r,3r)-1′-((5-chloro-1-(3-cyanopropyl)-1H-benzo[d]imidazol-2-yl)methyl)-2′-oxospiro[cyclobutane-1,3′-indolin]-3-yl)carbamate], the EC50 was 0.245 nM.

As to `N#CCCCn1c(CN2C(=O)C3(CN(C(=O)C4(O)CC4)C3)c3ccccc32)cc2cc(Cl)ccc21` [Compound 137], the EC50 was 0.107 nM.

As for `CC(C)(O)C(=O)N1CCC2(C1)C(=O)N(Cc1nc3cc(Cl)ccc3n1CCCS(C)(=O)=O)c1ccccc12` (stereo not drawn) [Compound 138, 1-((5-chloro-1-(3-(methylsulfonyl)propyl)-1H-benzo[d]imidazol-2-yl)methyl)-1′-(2-hydroxy-2-methylpropanoyl)spiro[indoline-3,3′-pyrrolidlin]-2-one], the EC50 was 2.14 nM.

On to `N#CCCCn1c(CN2c3ccccc3[C@]3(C[C@@H](N)C3)C2=O)nc2cc(Cl)ccc21` [Compound 148, 4-(2-(((1r,3r)-3-amino-2′-oxospiro[cyclobutane-1,3′-indolin]-1′-yl)methyl)-5-chloro-1H-benzo[d]imidazol-1-yl)butanenitrile], for which the EC50 was 4.68 nM.

Take `N#CCCCn1c(CN2c3ccccc3[C@]3(C[C@H](N)C3)C2=O)nc2cc(Cl)ccc21` [Compound 149, 4-(2-(((1s,3s)-3-amino-2′-oxospiro[cyclobutane-1,3′-indolin]-1′-yl)methyl)-5-chloro-1H-benzo[d]imidazol-1-yl)butanenitrile]: the EC50 is 1.2 nM.

As to `CC(=O)OCCOC(=O)N1CCC2(CC1)C(=O)N(Cc1cc3cc(Cl)ccc3n1CCCC#N)c1cnccc12` [Compound 150, 2-(Acetyloxy)ethyl 1′-{[5-chloro-1-(3-cyanopropyl)-1H-indol-2-yl]methyl}-2′-oxo-1′,2′-dihydro-1H-spiro[piperidine-4,3′-pyrrolo-[2,3-c]pyridine]-1-carboxylate], the EC50 was 0.049 nM.

Turning to `CC(C)(O)C(=O)N1CC2(C1)C(=O)N(Cc1cc3cc(Cl)ccc3n1CCCS(C)(=O)=O)c1ccccc12` [Compound 152, 1′-({5-Chloro-1-[3-(methylsulfonyl)propyl]-1H-indol-2-yl}methyl)-1-(2-hydroxy-2-methylpropanoyl)spiro[azetidine-3,3′-indol]-2′(1′H)-one], the EC50 was 1.58 nM.

As to `CC(C)(O)C(=O)N1CCC2(CC1)C(=O)N(Cc1c(C(N)=O)c3cc(Cl)ccc3n1CCCCF)c1cnccc12` [Compound 153, 5-Chloro-1-(4-fluorobutyl)-2-{[1-(2-hydroxy-2-methylpropanoyl)-2′-oxospiro[piperidine-4,3′-pyrrolo[2,3-c]pyridin]-1′(2′H)-yl]methyl}-1H-indole-3-carboxamide], the EC50 is 0.0575 nM.

Take `CC(C)(O)C(=O)N1CCC2(C1)C(=O)N(Cc1nc3cc(Cl)ccc3n1CCCC#N)c1ccccc12` (stereo not drawn) [Compound 154, 4-(5-Chloro-2-{[1′-(2-hydroxy-2-methylpropanoyl)-2-oxospiro[indole-3,3′-pyrrolidin]-1(2H)-yl]methyl}-1H-benzimidazol-1-yl)butanenitrile]: the EC50 is 1.17 nM.

Turning to `CC(C)(O)C(=O)N1CCC2(CC1)C(=O)N(Cc1cc3cc(Cl)ccc3n1CCCCO)c1cnccc12` [Compound 155, 1′-{[5-Chloro-1-(4-hydroxybutyl)-1H-indol-2-yl]methyl}-1 - (2-hydroxy-2-methylpropanoyl)spiro[piperidine-4,3′-pyrrolo[2,3-c]pyridin]-2′(1′H)-one], the EC50 is 0.17 nM.

Consider `CC(C)(C)OC(=O)N1CCC2(CC1)C(=O)N(Cc1c(C(N)=O)c3cc(Cl)ccc3n1CCCCF)c1cnccc12` [Compound 156, tert-Butyl 1′-{[3-carbamoyl-5-chloro-1-(4-fluorobutyl)-1H-indol-2-yl]methyl}-2′-oxo-1′,2′-dihydro-1H-spiro[piperidine-4,3′-pyrrolo[2,3-c]pyridine]-1-carboxylate], for which the EC50 was 0.0676 nM.

Regarding `CC(C)(C)OC(=O)N1CCC2(C1)C(=O)N(Cc1nc3cc(Cl)ccc3n1CCCC#N)c1ccccc12` (stereo not drawn) [Compound 157, tert-Butyl 1-{[5-chloro-1-(3-cyanopropyl)-1H-benzimidazol-2-yl]methyl}-2-oxo-1,2-dihydro-1′H-spiro[indole-3,3′-pyrrolidine]-1′-carboxylate], the EC50 is 3.98 nM.

Consider `O=C1CC2(C1)C(=O)N(Cc1nc3cc(Cl)ccc3n1CCCCF)c1ccccc12` [Compound 158, 1-{[5-Chloro-1-(4-fluorobutyl)-1H-benzimidazol-2-yl]methyl}-3H-spiro[cyclobutane-1,3′-indole]-2′,3(1′H)-dione], for which the EC50 was 0.575 nM.

With `O=C1N(Cc2cc3cc(Cl)ccc3n2CCCCF)c2cnccc2C12CCNCC2` [Compound 162], the EC50 was 4.57 nM.

`CC(C)(C)OC(=O)N1CC2(C1)C(=O)N(Cc1cc3cc(Cl)ccc3n1CCCS(C)(=O)=O)c1ccccc12` [Compound 163, tert-Butyl 1′-({5-chloro-1-[3-(methylsulfonyl)propyl]-1H-indol-2-yl}methyl)-2′-oxo-1′,2′-dihydro-1H-spiro[azetidine-3,3′-indole]-1-carboxylate]: the EC50 was 0.2 nM.

As for `N#CCCCn1c(CN2C(=O)C3(CN(C(=O)C(O)CO)C3)c3ccccc32)cc2cc(Cl)ccc21` (stereo not drawn) [Compound 165, 4-(5-chloro-2-((1-(2,3-dihydroxypropanoyl)-2′-oxospiro[azetidine-3,3′-indolin]-1′-yl)methyl)-1H-indol-1-yl)butanenitrile], the EC50 was 0.145 nM.

Take `O=C(C(O)CO)N1CCC2(CC1)C(=O)N(Cc1cc3cc(Cl)ccc3n1CCCCF)c1cnccc12` (stereo not drawn) [Compound 167, 1′-{[5-Chloro-1-(4-fluorobutyl)-1H-indol-2-yl]methyl}-1-(2,3-dihydroxypropanoyl)spiro[piperidine-4,3′-pyrrolo[2,3-c]pyridin]-2′(1′H)-one]: the EC50 is 0.123 nM.

On to `CNC(=O)O[C@H]1C[C@@]2(C1)C(=O)N(Cc1nc3cc(Cl)ccc3n1CCCC#N)c1ccccc12` [Compound 168, (1r,3r)-1′-((5-chloro-1-(3-cyanopropyl)-1H-benzo[d]imidazol-2-yl)methyl)-2′-oxospiro[cyclobutane-1,3′-indolin]-3-yl methylcarbamate], for which the EC50 is 0.0347 nM.

As to `CC(=O)NS(=O)(=O)N1CC2(C1)C(=O)N(Cc1nc3cc(Cl)ccc3n1CCCC#N)c1ccccc12` [Compound 170, N-[(1′-{[5-Chloro-1-(3-cyanopropyl)-1H-benzimidazol-2-yl]methyl}-2′-oxo-1′,2′-dihydro-1H-spiro[azetidine-3,3′-indol]-1-yl)sulfonyl]acetamide], the EC50 is 0.269 nM.

For `N#CCCCn1c(CN2c3ccccc3[C@]3(C[C@@H](OC(=O)NC4CC4)C3)C2=O)nc2cc(Cl)ccc21` [Compound 173, (1r,3r)-1′-((5-chloro-1-(3-cyanopropyl)-1H-benzo[d]imidazol-2-yl)methyl)-2′-oxospiro[cyclobutane-1,3′-indolin]-3-yl cyclopropylcarbamate], the EC50 is 0.0224 nM.

Regarding `CC1CC2(CC(C)O1)C(=O)N(Cc1nc3cc(Cl)ccc3n1CCCS(C)(=O)=O)c1cnccc12` (stereo not drawn) [Compound 174, 1′-({5-Chloro-1-[3-(methylsulfonyl)propyl]-1H-benzimidazol-2-yl}methyl)-2,6-dimethyl-2,3,5,6-tetrahydrospiro[pyran-4,3′-pyrrolo[2,3-c]pyridin]-2′(1′H)-one], the EC50 was 17.8 nM.

With `CC(C)(O)C(=O)N1CC2(C1)C(=O)N(Cc1nc3cc(Cl)ccc3n1CCCCO)c1ccccc12` [Compound 175, 1′-{[5-Chloro-1-(4-hydroxybutyl)-1H-benzimidazol-2-yl]methyl}-1-(2-hydroxy-2-methylpropanoyl)spiro[azetidine-3,3′-indol]-2′(1′H)-one], the EC50 is 0.0741 nM.

For the molecule `O=C(NS(=O)(=O)N1CCC2(CC1)C(=O)N(Cc1cc3cc(Cl)ccc3n1CCCCF)c1cnccc12)C1CC1` [Compound 184, N-[(1′-{[5-Chloro-1-(4-fluorobutyl)-1H-indol-2-yl]methyl}-2′-oxo-1′,2′-dihydro-1H-spiro[piperidine-4,3′-pyrrolo[2,3-c]pyridin]-1-yl)sulfonyl]cyclopropanecarboxamide], the EC50 is 0.219 nM.

Tested on in a further data set: not given
Assay: not given
Conditions: not given
On to `N#CCCCn1c(CN2C(=O)C3(CCNCC3)c3ccncc32)cc2cc(Cl)ccc21` (as salt: hydrochloride) [Compound 78, 4-(5-chloro-2-((2′-oxospiro[piperidine-4,3′-pyrrolo[2,3-c]-pyridin]-1′(2′H)-yl)methyl)-1H-indol-1-yl)butanenitrile hydrochloride], for which the melting point (in general, the temperature, or range, at which the solid turns liquid) is 82.02 °C.
